Key:
CCld = target: T1, CCld (Cyanothece sp. PCC 7425, UniProt B8HNS6); test: UV-vis titration; format: binding; settings: read-out: dissociation constant
T1 construct: gene Cyan7425_1434

Arg127 = Arg127 (UniProt position 127, LPGVARRLLHC); test: neutron; settings: 293 K; 0.15 M MgSO4; 0.1 M glycine-NaOH pH 9.0, 0.15 M MgSO4, 30% PEG 3350, 5% glycerol; Ferric CCld crystal, hydroxide (OD-) bound to the haem iron, Arg127 in the 'out' conformation

T1 sequence (B8HNS6 entry or part of it): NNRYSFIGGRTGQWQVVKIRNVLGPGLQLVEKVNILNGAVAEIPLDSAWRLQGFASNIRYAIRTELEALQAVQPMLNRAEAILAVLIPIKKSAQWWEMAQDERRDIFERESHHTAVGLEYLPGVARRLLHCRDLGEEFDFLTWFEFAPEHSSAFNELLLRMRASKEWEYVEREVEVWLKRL

F [F^–, fluoride]
Kd (CCld): 12.6 mM

N#CS [SCN^–, thiocyanate]
Kd (CCld): 0.074 mM

Chlorite dismutase (CCld) (Cyanothece sp. PCC7425)
pKa (Arg127): >9.0 (protonated at pH 9.0)

— PMC5678291, “Molecular Mechanism of Enzymatic Chlorite Detoxification: Insights from Structural and Kinetic Studies” (ACS Catalysis, 2017)
